Results on eleven molecules are retold here after US5621133A (priority 1995, dated 1997).

Structures can show the parent of a compound that is named as a salt. Where two headings read alike, the source gives them in different places.

In assay [1] the test system is striatal dopamine receptors. The assay can be described thus: Rotation behavior assay of in vivo activity (6-hydroxydopamine lesioned rat rotational model). To be noted: for ED50 s.c. (rotation behavior): injected subcutaneously.
The target of assay [2] is T1, dopamine D-1 receptor (Rattus norvegicus, UniProt P18901). The assay can be described thus: biochemical. To be noted: D-1 Ki, rat caudate, [125I]SCH-23982.
T1 sequence (P18901 whole entry, the tested form may be a part): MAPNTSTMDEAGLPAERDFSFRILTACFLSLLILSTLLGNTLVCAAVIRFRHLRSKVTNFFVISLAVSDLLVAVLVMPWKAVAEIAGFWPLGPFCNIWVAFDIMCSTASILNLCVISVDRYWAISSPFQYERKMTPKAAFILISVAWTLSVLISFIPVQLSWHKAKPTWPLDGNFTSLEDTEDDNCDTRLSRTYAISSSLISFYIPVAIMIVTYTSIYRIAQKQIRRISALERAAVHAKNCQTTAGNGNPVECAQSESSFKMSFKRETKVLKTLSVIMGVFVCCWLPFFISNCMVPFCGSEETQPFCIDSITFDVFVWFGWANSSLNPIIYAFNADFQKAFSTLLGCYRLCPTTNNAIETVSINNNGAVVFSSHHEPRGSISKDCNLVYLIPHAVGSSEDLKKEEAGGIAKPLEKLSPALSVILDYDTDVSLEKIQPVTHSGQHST
Excerpt: (§1) The compounds compete with the radiolabeled ligand for occupancy of the receptors and the molar potency of each compound was quantified.
(§2) The Ki values are inversely proportional to the affinity of the compound for the receptor.
The next assay deals with anesthetized dogs. The assay can be described thus: Cardiovascular pharmacology - hemodynamic studies in anesthetized dogs. Format: in vivo, dog (Beagle). To be noted: cumulative intraaortic infusion above renal arteries; dose ranges (g/kg/min): 2A 3-10, 3 1-10, 35 1-3, 36 1-10, 37 1-30. The procedure:
Male Beagle dogs were anesthetized with pentobarbital (30 mg/kg. i.v.) and maintained with i.v. infusion (Abbott/Shaw Life Care Pump, Model II/D) to maintain stable cardiovascular function. The dogs were […] with a cuffed endotracheal tube and ventilated with room air by means of a positive pressure respiratory pump. Expired respiratory CO2 was monitored with a Beckman LB-2 gas analyzer and maintained at 5% by appropriate pump adjustments. The dogs were maintained at a body temperature of 37.5°±1.0° C. with a thermostatically controlled animal table. Polyethylene catheters were placed in the abdominal aorta via the femoral and carotid arteries for blood pressure and left ventricular pressure recordings. A Swan-Ganz thermodilution catheter with a 15 cm proximal port was placed in the jugular vein for central venous and pulmonary arterial recordings and for determination of cardiac output (American Edwards Cardiac Output Computer, Model COM-1). Heart rate and electrocardiogram (ECG) recordings were made from a Lead II ECG connection. […] A calibrated electromagnetic flow probe (Carolina Medical Electronics) was positioned around the renal artery. The abdominal cavity is closed with wound clips. Recordings were made on a Grass polygraph. An additional small polyethylene catheter was inserted into a branch of the left femoral artery and the tip positioned in the aorta above the renal arteries. […] A thirty-fold dose-response-curve was administered by varying flow rate from 0.01 to 0.30 mL/minute.

Assay [3] deals with dopamine D-1 receptor. To be noted: for Intrinsic Activity (adenylate cyclase assay): dopamine = 100, goldfish retina or rat striatum; for EC50: read-out: EC50 (agonist activity in adenylate cyclase assay), tissue from goldfish retina or rat striatum.
Description: In order to determine agonist activity, cell-free tissue homogenates are incubated in an ionic buffer solution containing ATP and the compound being evaluated. The tissue was obtained from either goldfish retina or rat striatum.
For a further assay, the target named is dopamine D-2 receptor (Rattus norvegicus, UniProt P61169). The assay can be described thus: biochemical. The format is binding. To be noted: rat caudate, [125I]-p-aminophenylethyl spiroperidol; read-out: D-2 Ki. As to the method:
Homogenized rat caudate was the source of the D-2 receptors. […] The molar affinity of the compound for the receptor binding site was calculated by the same method used for the D-1 receptor assay, assuming a competitive interaction between the compound and the radiolabeled ligand.

In another assay the test system is rats. To be noted: cited from earlier work.
A further assay deals with Parkinson's Disease. To be noted: cited from earlier work.
Assay [4] addresses T1, dopamine D-1 receptor. To be noted: read-out: D-1 Ki; rat caudate, [125I]SCH-23982.
Excerpt: as §1, §2
The subject of assay [5] is spontaneously hypertensive rats. The assay can be described thus: Diuretic effects in spontaneously hypertensive rats. Format: in vivo, rat. To be noted: 3.0 mg/kg i.v., 2 hour interval. As to the method: Male, spontaneously hypertensive rats (SHR), weighing 285-350 grams were used to evaluate the diuretic effects of one of the compounds of the invention. Following an overnight fasting period with free access to drinking water, the rats received an intragastric fluid load of 0.9 saline at 5% of their body weight. Simultaneously with the load, the rats were dosed with a test compound or vehicle and placed individually in stainless steel metabolic cages where they had access to drinking water throughout the duration of the experiment. For intravenous administration, the rats were instrumented with indwelling cannulas placed into the jugular vein at least one week prior to the experiment.
Urine was collected at 2 and 4 hours following drug administration. The volume of excreted urine at each collection interval was measured accurately and the samples were analyzed for sodium, potassium and chloride ions. Sodium and potassium were measured using a Digital Readout Flame Photometer (Instrumentation Labs). Chloride was measured by the method of Shales and Shales, J Biol Chem 140:879 (1941). The statistical analysis of the data was computed by an off-line computer program. In this program, a comparison test is made between the vehicle (control) group and each treatment group for all variables at each time interval of the experiment. The test of statistical significance is based on the Student's t-test, where the calculated t is a measure of the probability density function.
A control group of six rats received 0.1 mg/kg of saline solution acidified by ascorbic acid (0.3 mL). This solution was also the vehicle for the test compound.

Chain of dopamine D-2 receptor (P61169 whole entry): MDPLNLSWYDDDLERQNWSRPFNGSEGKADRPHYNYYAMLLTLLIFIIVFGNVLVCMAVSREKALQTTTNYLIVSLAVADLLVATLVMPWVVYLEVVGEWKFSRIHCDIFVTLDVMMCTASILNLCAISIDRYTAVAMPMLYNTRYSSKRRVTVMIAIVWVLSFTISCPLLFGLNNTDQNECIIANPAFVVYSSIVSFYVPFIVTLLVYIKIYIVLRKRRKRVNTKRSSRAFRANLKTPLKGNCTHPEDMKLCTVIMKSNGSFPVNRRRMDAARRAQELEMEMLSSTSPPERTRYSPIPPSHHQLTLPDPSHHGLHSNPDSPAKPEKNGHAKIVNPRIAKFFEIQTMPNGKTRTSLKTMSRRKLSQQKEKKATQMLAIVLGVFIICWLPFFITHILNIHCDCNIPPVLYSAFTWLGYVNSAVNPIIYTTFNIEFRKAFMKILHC

Take `NC[C@H]1C[C@@H](c2ccccc2)Cc2c1ccc(O)c2O` (relative stereo) [Example 35, [1,3-cis]1-Aminomethyl-5,6-dihydroxy-3-phenyl-1,2,3,4-tetrahydronaphthalene Hydrobromide]: in assay [1], the “ED50 oral (rotation behavior)” value worked out at 21.4 µmol/kg. At dopamine D-1 receptor [2], this molecule registered a Ki of 30 nM. In the assay with anesthetized dogs, the “Max Decrease MAP (mean arterial blood pressure)” value (“Max Decrease MAP” for short) amounted to 26% and the “Max Increase RBF (renal blood flow)” value stood at 35%. In the assay on dopamine D-1 receptor [3], the “Intrinsic Activity (adenylate cyclase assay)” value (shortened to “Intrinsic Activity”) was determined as 66 and the concentration giving a half-maximal response (EC50) amounted to 10 nM. Besides, the Ki at dopamine D-2 receptor came out at 760 nM.

In the case of `Oc1cc2c(cc1O)C(c1ccccc1)CNCC2` (stereo not drawn) [SKF 38393], the food intake result with rats was “decrease food intake”.

For `CC(C)C[C@H]1C(=O)N2CCC[C@H]2[C@]2(O)O[C@](NC(=O)[C@@H]3C=C4c5cccc6[nH]c(Br)c(c56)C[C@H]4N(C)C3)(C(C)C)C(=O)N12` [bromocryptine], the “effect on L-DOPA requirement” value with Parkinson's Disease is “lowers the amount of L-DOPA required to achieve the maximal therapeutic response”.

`Br.NC[C@@H]1C[C@H](C2CCCCC2)Cc2c1ccc(O)c2O` [Example 37, [1R,3S]1-Aminomethyl-3-cyclohexyl-5,6-dihydroxy-1,2,3,4-tetrahydronaphthalene Hydrobromide] returned an inhibitory constant (Ki) on dopamine D-1 receptor [2] of 57 nM. In addition, in the assay on anesthetized dogs, the “Max Decrease MAP” value worked out at 39% and the “Max Increase RBF (renal blood flow)” value was determined as 48%. Further, in the assay on dopamine D-1 receptor [3], the “Intrinsic Activity” value is 56 and the EC50 is 31 nM. Also, the Ki at dopamine D-2 receptor came to 10000 nM.

For the molecule `C=CCNC[C@@H]1O[C@H](c2ccccc2)Cc2c1ccc(O)c2O` (stereo in doubt) [Example 130], in assay [1], the “ED50 s.c. (rotation behavior)” value turned out to be 0.13 µmol/kg and the “ED50 oral (rotation behavior)” value came to 8 µmol/kg. On dopamine D-1 receptor [4], the Ki is 51 nM. Also, in the assay with dopamine D-1 receptor [3], the “Intrinsic Activity” value is 82 and the EC50 is 170 nM. Also, the Ki at dopamine D-2 receptor was 190 nM.

`Br.NCC1=CC(C2CCCCC2)Cc2c1ccc(O)c2O` (stereo not drawn) [Example 36, 1-Aminomethyl-3-cyclohexyl-5,6-dihydroxy-3,4-dihydronaphthalene Hydrobromide]: in assay [1], the “ED50 s.c. (rotation behavior)” value worked out at 0.5 µmol/kg and the “ED50 oral (rotation behavior)” value is recorded as 170 µmol/kg. This molecule also showed an inhibition constant (Ki) on dopamine D-1 receptor [2] of 200 nM. Moreover, in the assay with anesthetized dogs, the “Max Decrease MAP” value is 13% and the “Max Increase RBF (renal blood flow)” value stood at 94%. In the assay with dopamine D-1 receptor [3], the “Intrinsic Activity” value is 57 and the EC50 turned out to be 79 nM. Besides, at dopamine D-2 receptor, the Ki was above 10000 nM.

Take `CN1CCC2=C(C1)c1ccc(O)c(O)c1CC2c1ccccc1` (stereo not drawn) [Example 246]: the “ED50 s.c. (rotation behavior)” value in [1] is listed as 0.54 µmol/kg. Besides, the figures for the inhibition constant (Ki) at dopamine D-1 receptor [4] and on dopamine D-2 receptor were 190 nM and 3200 nM, respectively. Moreover, the “Intrinsic Activity” value in the assay on dopamine D-1 receptor [3] was found to be 78. For the same molecule, on dopamine D-1 receptor [3], the EC50 came to 220 nM.

For the molecule `CC(=O)Oc1ccc2c(c1OC(C)=O)CC(c1ccccc1)C=C2CN.Cl` (stereo not drawn) [Example 3, 5,6-Bis(acetoxy)-1-aminomethyl-3-phenyl-3,4-dihydronaphthalene Hydrochloride], the “ED50 s.c. (rotation behavior)” value in assay [1] is on record as 0.91 µmol/kg. Further, in the assay on anesthetized dogs, the “Max Decrease MAP” value is 8% and the “Max Increase RBF (renal blood flow)” value came to 83%.

As to `Br.NCC1=CC(c2ccccc2)Cc2c1ccc(O)c2O` (stereo not drawn) [Example 2A, 1-Aminomethyl-5,6-dihydroxy-3-phenyl-3,4-dihydronaphthalene Hydrobromide], in the assay on anesthetized dogs, the “Max Decrease MAP” value is 32% and the “Max Increase RBF (renal blood flow)” value was 27%. The molecule also came in with a Urine potassium in [5] (control 0.29, n = 6) of 0.55 meq/kg. For the same molecule, the Urine sodium in assay [5] (control 1.60, n = 6) is reported as 2.35 meq/kg. Besides, the Urine chloride in [5] (control 1.87, n = 6) is on record as 2.71 meq/kg. This molecule displayed a Urine volume in assay [5] (control 13.02, n = 6) of 22.57 mL/kg. In addition, in the assay with dopamine D-1 receptor [3], the “Intrinsic Activity” value is 56. On dopamine D-2 receptor, the inhibition constant Ki was above 10000 nM.

As to `CN1CCC2=C(C1)c1ccc(O)c(O)c1CC2c1ccccc1` (stereo not drawn) [Example 247], the “ED50 s.c. (rotation behavior)” value in assay [1] is recorded as 0.014 µmol/kg. Moreover, the inhibition constant Ki at dopamine D-1 receptor [4] worked out at 20 nM. Further, in the assay on dopamine D-1 receptor [3], the “Intrinsic Activity” value amounted to 75 and the half-maximal effective concentration (EC50) was found to be 30 nM. Moreover, the Ki on dopamine D-2 receptor came to 1800 nM.

For the molecule `CCCCCC(NC(C)=O)[C@@H]1Cc2c(ccc(O)c2O)[C@H](CN)O1` (relative stereo) [Example 162], the inhibition constant (Ki) at dopamine D-1 receptor [4] is 670 nM. Further, in the assay with dopamine D-1 receptor [3], the “Intrinsic Activity” value was 107 and the concentration for a half-maximal effect (EC50) was determined as 690 nM. Moreover, the inhibition constant Ki at dopamine D-2 receptor is 710 nM.

Broadly, the Ki is the equilibrium dissociation constant of an inhibitor or competing ligand from its target. By EC50 is commonly meant the midpoint of the concentration-response curve.
